Read-outs that look alike come from different tables or passages of the source.
Molecular target: T1, human ERα (Homo sapiens, UniProt P03372)
T1 sequence (P03372 1-595): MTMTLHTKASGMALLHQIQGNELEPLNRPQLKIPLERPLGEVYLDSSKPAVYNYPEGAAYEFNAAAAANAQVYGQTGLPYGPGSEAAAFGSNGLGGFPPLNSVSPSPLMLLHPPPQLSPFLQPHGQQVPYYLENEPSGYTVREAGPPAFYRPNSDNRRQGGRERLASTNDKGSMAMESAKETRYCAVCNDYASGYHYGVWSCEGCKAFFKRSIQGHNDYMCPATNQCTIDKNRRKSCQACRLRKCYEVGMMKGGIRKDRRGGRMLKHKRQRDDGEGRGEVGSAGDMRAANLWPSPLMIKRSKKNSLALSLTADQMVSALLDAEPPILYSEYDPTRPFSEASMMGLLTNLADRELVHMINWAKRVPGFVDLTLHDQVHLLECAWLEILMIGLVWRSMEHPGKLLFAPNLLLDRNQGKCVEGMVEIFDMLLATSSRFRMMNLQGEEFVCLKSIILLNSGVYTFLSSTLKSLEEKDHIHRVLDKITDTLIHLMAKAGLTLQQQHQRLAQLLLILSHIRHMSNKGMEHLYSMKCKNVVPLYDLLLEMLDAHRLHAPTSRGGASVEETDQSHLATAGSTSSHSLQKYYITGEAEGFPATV
Experiment: NF-κB luciferase reporter (ER/NF-KB-luc) in Ad5-wt-hERα infected HAECT-1 cells
Conditions: for IC50: ER/NF-KB-luc IC50, Ad5-wt-ER infected HAECT-1 cells, IL-1β

[1] = HAECT1, read-out: ER/NF-KB-luc % E2, efficacy relative to the maximal inhibition observed with E2

Compound | IC50 [µM] | Emax [1] [%] | Emax (HAECT1, read-out: ER/NF-KB-luc % E2) [%]
Cc1cc(O)ccc1-c1nn(C(C)C)c2c(-c3ccc(-c4ccccc4)cc3)cccc12 [Example 252, 4-[7-(1,1′-biphenyl-4-yl)-1-isopropyl-1H-indazol-3-yl]-3-methyl-phenol] | 0.056 | 59 | –
CCc1ccc(-c2cccc3c(-c4ccc(O)cc4)nn(C(C)C)c23)cc1 [Example 232, 4-[7-(4-ethylphenyl)-1-isopropyl-1H-indazol-3-yl]phenol] | 0.143 | 75 | –
CCCn1nc(-c2ccc(O)cc2)c2cccc(-c3ccc(F)cc3)c21 [Example 104, 4-[7-(4-Fluorophenyl)-1-propyl-1H-indazole-3-yl]phenol] | 0.25 | 81 | –
Cc1cc(O)ccc1-c1nn(C2CCCC2)c2c(Cl)cccc12 [Example 84, 4-(7-chloro-1-cyclopentyl-1H-indazole-3-yl)-3-methylphenol] | 0.036 | 75 | –
CSc1ccc(-c2cccc3c(-c4ccc(O)cc4)nn(C(C)C)c23)cc1 [Example 228, 4-{1-isopropyl-7-[4-(methylthio)phenyl]-1H-indazol-3-yl}phenol] | 0.075 | 83 | –
Cc1cc(O)ccc1-c1nn(C(C)C)c2c(-c3ccccc3Cl)cccc12 [Example 253, 4-[7-(2-chlorophenyl)-1-isopropyl-1H-indazol-3-yl]-3-methyl-phenol] | 0.021 | 62 | –
CC(C)n1nc(-c2ccc(O)cc2)c2cccc(-c3ccccc3Cl)c21 [Example 234, 4-[7-(2-chlorophenyl)-1-isopropyl-1H-indazol-3-yl]phenol] | 0.034 | 72 | –
Cc1cc(O)ccc1-c1nn(CC(C)C)c2c(F)cccc12 [Example 96, 4-(7-fluoro-1-isobutyl-1H-indazole-3-yl)-3-methylphenol] | 0.088 | 78 | –
Cc1cc(O)ccc1-c1nn(C2CCCC2)c2c(-c3ccccc3Cl)cccc12 [Example 262, 4-[7-(2-chlorophenyl)-1-cyclopentyl-1H-indazol-3-yl]-3-methyl-phenol] | 0.008 | 75 | –
Oc1ccc(-c2nn(CC3CCCCC3)c3c(C(F)(F)F)cccc23)c(O)c1 [Example 67, 4-[1-(cyclohexylmethyl)-7-(trifluoromethyl)-1H-indazol-3-yl]benzene-1,3-diol] | 0.048 | 65 | –
CCCCCn1nc2c(Cl)cccc2c1-c1ccc(O)cc1 [Example 42, 4-[7-chloro-2-pentyl-2H-indazol-3-yl]phenol] | 0.19 | 102 | –
Cn1nc(-c2ccc(O)cc2)c2cc(F)c(Cl)cc21 [Example 125, 4-(6-chloro-5-fluoro-1-methyl-1H-indazol-3-yl)phenol] | 0.479 | 128 | –
CCNC(=O)Oc1ccc(-c2nn(C3CCCC3)c3c(F)cccc23)cc1 [Example 118, 4-(1-cyclopentyl-7-fluoro-1H-indazol-3-yl)phenyl ethylcarbamate] | 0.418 | – | 66
Oc1ccc(-c2nn(Cc3ccccc3)c3c(C(F)(F)F)cccc23)c(O)c1 [Example 143, 4-[1-benzyl-7-(trifluoromethyl)-1H-indazol-3-yl]benzene-1,3-diol] | 0.31 | 65 | –
CCCn1nc2c(F)cccc2c1-c1ccc(O)cc1 [Example 54, 4-(7-fluoro-2-propyl-2H-indazol-3-yl)phenol] | 0.393 | 77 | –
CCc1ccc(-c2cccc3c(-c4ccc(O)cc4C)nn(C4CCCC4)c23)cc1 [Example 260, 4-[1-cyclopentyl-7-(4-ethylphenyl)-1H-indazol-3-yl]-3-methyl-phenol] | 0.028 | 53 | –
CCCCn1nc(-c2ccc(O)cc2)c2cccc(C(F)(F)F)c21 [Example 219, 4-[1-butyl-7-(trifluoromethyl)-1H-indazol-3-yl]phenol] | 0.369 | 104 | –

Second part, led by results:

IC50 [µM] | Emax [1] [%] | Compound | Emax (HAECT1, read-out: ER/NF-KB-luc % E2) [%]
0.274 | 112 | O=[N+]([O-])c1cccc(-n2nc(-c3ccc(O)cc3O)c3ccc(O)cc32)c1 [Example 25, 4-[6-hydroxy-1-(3-nitrophenyl)-1H-indazol-3-yl]benzene-1,3-diol] | –
0.018 | 48 | CC(C)n1nc(-c2ccc(O)cc2O)c2cccc(Cl)c21 [Example 80, 4-(7-chloro-1-isopropyl-1H-indazol-3-yl)benzene-1,3-diol] | –
0.063 | 83 | Oc1ccc(-c2nn(-c3ccc(F)c(Cl)c3)c3cc(O)ccc23)c(O)c1 [Example 24, 4-[1-(3-chloro-4-fluorophenyl)-6-hydroxy-1H-indazol-3-yl]benzene-1,3-diol] | –
0.128 | 60 | CCCn1nc(-c2ccc(O)cc2C)c2cccc(F)c21 [Example 93, 4-(7-fluoro-1-propyl-1H-indazole-3-yl)-3-methylphenol] | –
– | 85 | Oc1ccc(-c2nn(-c3cccc(Cl)c3)c3cc(O)ccc23)c(O)c1 [Example 6, 4-[1-(3-chlorophenyl)-6-hydroxy-1H-indazol-3-yl]benzene-1,3-diol] | –
1.88 | 158 | Cc1cc(-c2nn(C3CCCC3)c3c(F)cccc23)ccc1O [Example 63, 4-(1-cyclopentyl-7-fluoro-1H-indazol-3-yl)-2-methylphenol] | –
0.35 | 78 | CCCn1nc(-c2ccc(OC(=O)CC(C)(C)C)cc2)c2cccc(Cl)c21 [Example 122, 4-(7-chloro-1-propyl-1H-indazol-3-yl)phenyl 3,3-dimethylbutanoate] | –
0.918 | 66 | CCCn1nc(-c2ccc(O)cc2)c2cccc(N3CCOCC3)c21 [Example 105, 4-(7-Morpholin-4-yl-1-propyl-1H-indazole-3-yl)phenol] | –
0.138 | 79 | CCCn1nc(-c2ccc(O)cc2)c2cccc(-c3ccc(O)cc3)c21 [Example 103, 4-[3-(4-hydroxyphenyl)-1-propyl-1H-indazole-7-yl]phenol] | –
0.268 | 67 | CC(=O)Oc1ccc(-c2nn(C3CCCC3)c3c(F)cccc23)cc1 [Example 114, 4-(1-cyclopentyl-7-fluoro-1H-indazol-3-yl)phenyl acetate] | –
0.014 | 76 | Oc1ccc(-c2nn(C3CCC3)c3c(C(F)(F)F)cccc23)c(O)c1 [Example 70, 4-[1-cyclobutyl-7-(trifluoromethyl)-1H-indazol-3-yl]benzene-1,3-diol] | –
0.059 | 59 | Cc1cc(O)ccc1-c1nn(C(C)C)c2c(-c3ccc(CO)cc3)cccc12 [Example 249, 4-{7-[14-(hydroxymethyl)phenyl]-1-isopropyl-1H-indazol-3-yl}-3-methylphenol] | –
0.032 | 60 | CCc1ccc(-c2cccc3c(-c4ccc(O)cc4)nn(C4CCCC4)c23)cc1 [Example 241, 4-[1-cyclopentyl-7-(4-ethylphenyl)-1H-indazol-3-yl]phenol] | –
0.056 | 74 | CC(C)Cn1nc(-c2ccc(O)cc2O)c2cccc(C(F)(F)F)c21 [Example 68, 4-[1-isobutyl-7-(trifluoromethyl)-1H-indazol-3-yl]benzene-1,3-diol] | –
0.05 | 73 | Oc1ccc(-c2nn(-c3ccccc3F)c3cc(O)ccc23)c(O)c1 [Example 22, 4-[1-(2-fluorophenyl)-6-hydroxy-1H-indazol-3-yl]benzene-1,3-diol] | –

Source: patent US7241791B2, “Substituted 4-(indazol-3-yl)phenols” (Wyeth, priority 2002, dated 2007)
